Laboratory results from ChEMBL document CHEMBL5620401, “Design, synthesis, and biological evaluation of novel spirocyclic compounds as potential anti-glioblastoma agents” (Eur J Med Chem, 2023).
pIC50: −log10 of the molar value.

What was measured:
U-87 MG = assay: Antiproliferative activity against human U87 cells assessed as cell viability measured after 72 hrs by MTT assay; type: functional, cell-based, U-87MG ATCC
U-251 = assay: Antiproliferative activity against human U-251 cells assessed as cell viability measured after 72 hrs by MTT assay; type: functional, cell-based; conditions: U-251, 72 h

| Compound | pIC50 (U-87 MG) | pIC50 (U-251) |
| --- | --- | --- |
| O=C(/C=C/c1ccccc1C(=O)N1CCN(Cc2ccccc2)C12COC2)c1ccccc1 | 4.98 | 5.13 |
| O=C(/C=C/c1ccc(C(=O)N2CCN(Cc3ccccc3)C23COC3)o1)c1ccsc1 | < 5.00 | 4.90 |
| COc1ccc(C(=O)/C=C/c2ccccc2C(=O)N2CCN(Cc3ccccc3)C23COC3)c(OC)c1OC | < 5.00 | 4.96 |
| COc1ccc(C(=O)/C=C/c2ccc(C(=O)N3CCN(Cc4ccccc4)C34COC4)cc2)cc1 | 5.49 | 5.62 |
| O=C(/C=C/c1ccncc1)c1ccc(C(=O)N2CCN(Cc3ccccc3)C23COC3)cc1 | 5.52 | 5.48 |
| O=C(/C=C/c1ccc(C(=O)N2CCN(Cc3ccccc3)C23COC3)s1)c1ccncc1 | 5.17 | 5.18 |
| O=C(/C=C/c1ccc(C(=O)N2CCN(Cc3ccccc3)C23COC3)s1)c1ccsc1 | 5.39 | 5.72 |
| O=C(/C=C/c1ccc(C(=O)N2CCN(Cc3ccccc3)C23COC3)cc1)c1ccsc1 | 5.07 | 5.44 |
| COc1ccc(C(=O)/C=C/c2cccc(C(=O)N3CCN(Cc4ccccc4)C34COC4)c2)c(OC)c1OC | 5.70 | 5.92 |
| O=C(/C=C/c1ccc(C(=O)N2CCN(Cc3ccccc3)C23COC3)cc1)c1ccncc1 | 5.28 | 5.28 |
| O=C(/C=C/c1cccc(C(=O)N2CCN(Cc3ccccc3)C23COC3)c1)c1ccccc1 | 5.51 | 5.68 |
| O=C(/C=C/c1ccc(C(=O)N2CCN(Cc3ccccc3)C23COC3)o1)c1ccncc1 | 4.98 | 5.22 |
| O=C(/C=C/c1ccc(C(=O)N2CCN(Cc3ccccc3)C23COC3)cc1)c1ccccc1 | 5.30 | 5.52 |
| COc1ccc(C(=O)/C=C/c2ccc(C(=O)N3CCN(Cc4ccccc4)C34COC4)cc2)c(OC)c1OC | 5.46 | 5.77 |
| O=C(/C=C/c1ccc(C(=O)N2CCN(Cc3ccccc3)C23COC3)cc1)c1ccccn1 | 5.28 | 5.38 |
| O=C(/C=C/c1cccc(C(=O)N2CCN(Cc3ccccc3)C23COC3)c1)c1ccncc1 | 5.14 | 5.21 |
| COc1ccc(C(=O)/C=C/c2ccccc2C(=O)N2CCN(Cc3ccccc3)C23COC3)cc1 | < 5.00 | 4.94 |
